Test results reported in ChEMBL document CHEMBL1126189, “Synthesis and X-ray crystallographic analysis of quinazolinone cholecystokinin/gastrin receptor ligands” (J Med Chem, 1992).

biological target: T1, Gastrin/cholecystokinin type B receptor (Mus musculus) (UniProt P56481); assay: Evaluated for inhibition of [125I]-CCK-8S binding to cholecystokinin CCK-B receptor from mouse brain membranes […] (in vitro); conditions: 10 uM
T1 sequence (whole entry): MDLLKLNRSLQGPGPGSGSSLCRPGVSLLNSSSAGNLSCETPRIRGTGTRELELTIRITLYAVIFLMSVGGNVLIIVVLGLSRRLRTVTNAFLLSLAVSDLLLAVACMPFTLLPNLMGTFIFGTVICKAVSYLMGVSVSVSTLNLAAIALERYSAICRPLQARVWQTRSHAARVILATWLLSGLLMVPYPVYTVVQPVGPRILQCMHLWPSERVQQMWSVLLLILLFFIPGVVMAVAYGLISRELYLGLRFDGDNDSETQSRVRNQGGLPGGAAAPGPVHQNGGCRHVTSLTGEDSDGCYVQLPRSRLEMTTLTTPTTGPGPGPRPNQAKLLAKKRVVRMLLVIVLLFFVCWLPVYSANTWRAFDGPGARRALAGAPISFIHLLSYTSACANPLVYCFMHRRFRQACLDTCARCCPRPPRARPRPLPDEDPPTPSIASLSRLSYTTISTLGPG

Row | SMILES | inhibition [%]
1 | O=c1c2ccccc2nc(CCc2ccccc2)n1-c1ccccc1 | 27
2 | O=c1c2ccccc2nc(CCCc2ccccc2)n1-c1ccccc1 | 21
3 | O=c1c2ccccc2nc(CCCc2c[nH]c3ccccc23)n1-c1ccccc1 | 20
4 | O=c1c2ccccc2nc(Cc2c[nH]c3ccccc23)n1-c1ccccc1 | 36
5 | O=c1c2ccccc2nc(Cc2ccccc2)n1-c1ccccc1 | 6

biological target: T2, Gastrin/cholecystokinin type B receptor (Mus musculus, UniProt P56481); assay: Evaluated for inhibition of [125I]CCK-8S binding to cholecystokinin CCK-B receptor from mouse brain membranes […] (in vitro); conditions: not given
T2 sequence (P56481 whole entry): T1 sequence (whole entry)

Row | IC50 [nM] | SMILES
6 | 1400 | CC(C)Oc1cccc(-n2c(/C=C/c3c[nH]c4ccc(Br)cc34)nc3ccccc3c2=O)c1
7 | 430 | CC(C)Oc1cccc(-n2c(/C=C/c3c[nH]c4ccccc34)nc3ccccc3c2=O)c1
8 | 70 | CC(C)Oc1cccc(-n2c(CC(C)c3c[nH]c4ccccc34)nc3ccccc3c2=O)c1 (centres undefined)
9 | 9100 | CC(C)Oc1cccc(-n2c(C(C)Cc3c[nH]c4ccccc34)nc3ccccc3c2=O)c1 (centres undefined)
